Test results as given in patent US12459951B2, “Compounds that interact with RAS superfamily proteins for treatment of cancers, inflammatory diseases, rasopathies, and fibrotic disease” (SHY Therapeutics, LLC, priority 2022, dated 2025).
Read-outs that look alike come from different tables or passages of the source.

Legend:
[1] = tested on: MiaPaca-2 (expressing KRAS G12C mutant); assay: Proliferation Assay (Cell Viability Assay); assay type: cell-based; details: Homo sapiens, MIA PaCa-2
Procedure, shortened: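 MiaPaca-2 cells (KRAS G12C) were grown in DMEM-high glucose with 10% FBS, seeded at 2000–5000 cells/well and cultured overnight. Compounds were added at 10 μM final, or as serial dilutions for IC50, in 0.3% DMSO/10% FBS for 2–4 days at 37 °C, 5% CO2. Viability was measured with CellTiter 96 Aqueous One and % inhibition calculated.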

KRas G12D mutant = assay: Ras GTP Binding Domain Inhibition Assay (Ras Superfamily Assay); details: 20 μM compound; for KRas G12D mutant + SOS: % inh.: with SOS; for KRas G12D mutant: % inh.: without SOS
Procedure, shortened: (§1)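 His-tagged GTPases immobilised on nickel-coated plates, pre-incubated with compound (20 μM single point, or serial dilution for IC50) 3 h at room temperature, with or without 10-30 μg/mL Sos (residues 556-1049) in the final hour. Bound Cy3- or Cy5-GTP (100 nM, 45 min) measured by fluorescence after washing.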

KRas wild type = assay: as above; details: 20 μM compound; for KRas wild type + SOS: % inh.: with SOS; for KRas wild type: % inh.: without SOS
Procedure, shortened: as §1

Rho-A = molecular target: T1, Rho-A (Homo sapiens, UniProt P61586); assay: as above; details: read-out: Rho-A: % inh..
T1 construct: made in house
Procedure, shortened: as §1

[2] = read-out: Proliferation in MiaPaca-2: IC50

T1 sequence (P61586 whole entry): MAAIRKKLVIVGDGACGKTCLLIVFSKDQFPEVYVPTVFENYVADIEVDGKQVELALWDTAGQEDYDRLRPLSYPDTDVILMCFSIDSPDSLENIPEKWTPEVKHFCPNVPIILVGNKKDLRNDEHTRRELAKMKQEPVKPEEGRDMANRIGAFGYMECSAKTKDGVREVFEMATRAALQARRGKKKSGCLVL

Row | Structure (SMILES) | IC50 [1, 2] | KRas G12D mutant + SOS: % inh. (KRas G12D mutant) | KRas G12D mutant: % inh. (KRas G12D mutant) | KRas wild type + SOS: % inh. (KRas wild type) | KRas wild type: % inh. (KRas wild type) | inhibition at 20 µM (Rho-A) | IC50 ([1]; MiaPaca2, pancreatic, KRas G12C, read-out: Proliferation assay IC50) | IC50 ([1]; Proliferation assay, MiaPaca-2, read-out: MiaPaca-2 IC50 (nM) Pancreatic)
1 | Cc1c(-c2ccn(C(C)C)n2)cn2nc(-c3nccn3C)nc(Nc3ccncn3)c12 [Compound 55, 6-(1-Isopropyl-1H-pyrazol-3-yl)-5-methyl-2-(1-methyl-1H-imidazol-2-yl)-N-(pyrimidin-4-yl)pyrrolo[2,1-f][1,2,4]triazin-4-amine] | < 150 nM | C (C = 50-75% inhibition) | D (D = 76-100% inhibition) | C (C = 50-75% inhibition) | D (D = 76-100% inhibition) | 76 to 100% | – | –
2 | COc1ccc(-c2cn3nc(-c4nccn4C)nc(Nc4cc(OC)ncn4)c3c2C)cn1 [Compound 66, 6-(6-Methoxypyridin-3-yl)-N-(6-methoxypyrimidin-4-yl)-5-methyl-2-(1-methyl-1H-imidazol-2-yl)pyrrolo[2,1-f][1,2,4]triazin-4-amine] | > 1000 nM | D (D = 76-100% inhibition) | D (D = 76-100% inhibition) | D (D = 76-100% inhibition) | D (D = 76-100% inhibition) | 76 to 100% | – | –
3 | COc1cccc(-c2cn3nc(-c4nccn4C)nc(N[C@H]4C[C@H](OC)C4)c3c2-c2ccccc2)c1Cl [Compound 32, 6-(2-Chloro-3-methoxyphenyl)-N-((1r,3r)-3-methoxycyclobutyl)-2-(1-methyl-1H-imidazol-2-yl)-5-phenylpyrrolo[2,1-f][1,2,4]triazin-4-amine] | 150 to 500 nM | 0 (0 = 0% inhibition) | 0 (0 = 0% inhibition) | 0 (0 = 0% inhibition) | A (A = 1-25% inhibition) | 1 to 25% | – | –
4 | COc1cccc(Nc2nc(-c3nccn3C)nn3ccc(-c4ccccc4)c23)n1 [Compound 40, N-(6-Methoxypyridin-2-yl)-2-(1-methyl-1H-imidazol-2-yl)-5-phenylpyrrolo[2,1-f][1,2,4]triazin-4-amine] | > 1000 nM | 0 (0 = 0% inhibition) | 0 (0 = 0% inhibition) | 0 (0 = 0% inhibition) | 0 (0 = 0% inhibition) | 1 to 25% | – | –
5 | COc1cccc(Nc2nc(-c3nccn3C)nn3cc(-c4ccn(C(C)C)n4)c(-c4ccccc4)c23)n1 [Compound 23, 6-(1-Isopropyl-1H-pyrazol-3-yl)-N-(6-methoxypyridin-2-yl)-2-(1-methyl-1H-imidazol-2-yl)-5-phenylpyrrolo[2,1-f][1,2,4]triazin-4-amine] | > 1000 nM | 0 (0 = 0% inhibition) | A (A = 1-25% inhibition) | A (A = 1-25% inhibition) | 0 (0 = 0% inhibition) | 1 to 25% | – | –
6 | COc1cc(Nc2nc(-c3nccn3C)nn3cc(-c4cccnc4)c(C)c23)ncn1 [Compound 48, N-(6-Methoxypyrimidin-4-yl)-5-methyl-2-(1-methyl-1H-imidazol-2-yl)-6-(pyridin-3-yl)pyrrolo[2,1-f][1,2,4]triazin-4-amine] | < 150 nM | C (C = 50-75% inhibition) | C (C = 50-75% inhibition) | B (B = 26-49% inhibition) | C (C = 50-75% inhibition) | 76 to 100% | – | –
7 | CO[C@H]1CC[C@@H](Nc2nc(-c3ccccn3)nn3cc(-c4ccn(C(C)C)n4)c(-c4ccccc4)c23)C1 (racemic) [Compound 24, rac 6-(1-Isopropyl-1H-pyrazol-3-yl)-N-((1R,3S)-3-methoxycyclopentyl)-5-phenyl-2-(pyridin-2-yl)pyrrolo[2,1-f][1,2,4]triazin-4-amine] | > 1000 nM | 0 (0 = 0% inhibition) | 0 (0 = 0% inhibition) | 0 (0 = 0% inhibition) | 0 (0 = 0% inhibition) | 0% | – | –
8 | COc1ccnc(Nc2nc(-c3nccn3C)nn3cc(-c4ccn(C(C)C)n4)c(C)c23)c1 [Compound 58, 6-(1-Isopropyl-1H-pyrazol-3-yl)-N-(4-methoxypyridin-2-yl)-5-methyl-2-(1-methyl-1H-imidazol-2-yl)pyrrolo[2,1-f][1,2,4]triazin-4-amine] | < 150 nM | D (D = 76-100% inhibition) | D (D = 76-100% inhibition) | D (D = 76-100% inhibition) | D (D = 76-100% inhibition) | 76 to 100% | < 150 nM | 1 to 10 nM
9 | COCCCNc1nc(-c2nccn2C)nn2cc(-c3cccc(OC)c3Cl)c(-c3ccccc3)c12 [Compound 30, 6-(2-Chloro-3-methoxyphenyl)-N-(3-methoxypropyl)-2-(1-methyl-1H-imidazol-2-yl)-5-phenylpyrrolo[2,1-f][1,2,4]triazin-4-amine] | 510 to 1000 nM | A (A = 1-25% inhibition) | 0 (0 = 0% inhibition) | 0 (0 = 0% inhibition) | A (A = 1-25% inhibition) | 1 to 25% | – | –
10 | COCCNc1nc(-c2nccn2C)nn2cc(-c3cccc(OC)c3Cl)c(-c3ccccc3)c12 [Compound 29, 6-(2-Chloro-3-methoxyphenyl)-N-(2-methoxyethyl)-2-(1-methyl-1H-imidazol-2-yl)-5-phenylpyrrolo[2,1-f][1,2,4]triazin-4-amine] | 510 to 1000 nM | A (A = 1-25% inhibition) | 0 (0 = 0% inhibition) | 0 (0 = 0% inhibition) | A (A = 1-25% inhibition) | 1 to 25% | – | –
11 | COc1ccc(Nc2nc(-c3nccn3C)nn3cc(-c4ccn(C(C)C)n4)c(C)c23)cn1 [Compound 71, 6-(1-Isopropyl-1H-pyrazol-3-yl)-N-(6-methoxypyridin-3-yl)-5-methyl-2-(1-methyl-1H-imidazol-2-yl)pyrrolo[2,1-f][1,2,4]triazin-4-amine] | > 1000 nM | A (A = 1-25% inhibition) | A (A = 1-25% inhibition) | A (A = 1-25% inhibition) | 0 (0 = 0% inhibition) | 1 to 25% | – | –
12 | Cn1ccnc1-c1nc(OCCN2CCCC2)c2c(-c3ccccc3)ccn2n1 [Compound 41, 2-(1-Methyl-1H-imidazol-2-yl)-5-phenyl-4-(2-(pyrrolidin-1-yl)ethoxy)pyrrolo[2,1-f][1,2,4]triazine] | > 1000 nM | A (A = 1-25% inhibition) | 0 (0 = 0% inhibition) | 0 (0 = 0% inhibition) | A (A = 1-25% inhibition) | 0% | – | –
13 | CCn1ccc(-c2cn3nc(-c4nccn4C)nc(Nc4cc(OC)ncn4)c3c2C)n1 [Compound 64, 6-(1-Ethyl-1H-pyrazol-3-yl)-N-(6-methoxypyrimidin-4-yl)-5-methyl-2-(1-methyl-1H-imidazol-2-yl)pyrrolo[2,1-f][1,2,4]triazin-4-amine] | < 150 nM | D (D = 76-100% inhibition) | D (D = 76-100% inhibition) | D (D = 76-100% inhibition) | D (D = 76-100% inhibition) | 76 to 100% | – | –
14 | COc1cccc(-c2cn3nc(-c4nccn4C)nc(N[C@H]4C[C@H](OC)C4)c3c2-c2ccccn2)c1F [Compound 45, 6-(2-Fluoro-3-methoxyphenyl)-N-((1r,3r)-3-methoxycyclobutyl)-2-(1-methyl-1H-imidazol-2-yl)-5-(pyridin-2-yl)pyrrolo[2,1-f][1,2,4]triazin-4-amine] | > 1000 nM | A (A = 1-25% inhibition) | B (B = 26-49% inhibition) | B (B = 26-49% inhibition) | B (B = 26-49% inhibition) | 50 to 75% | – | –
